From PubChem BioAssay (NCI)
Several values for one entry are separate records, joined by “and”; a condition that tells them apart may be missing. Identical values can stand only once.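 All cell lines were grown in 96-well plates and treated with compound for 48 hours. GI50 = concentration required for 50% inhibition of growth. TGI is the concentration that stops growth completely.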

The molecules below were run on KM12 colon (assay: NCI anticancer screen, dose series, 48 h).
`N#CC1C(C#N)C2(c3ccccc3)C(c3ccccc3)=NN(c3ccccc3)CC12` (stereo not drawn) was tested, and the TGI was greater than 100 µM.
`COc1cc(Cc2cnc(/N=C3\C(=O)N(CN4CCN(c5c(F)cc6c(=O)c(C(=O)O)cn(C7CC7)c6c5OC)CC4C)c4ccc(F)cc43)nc2N)cc(OC)c1OC` (stereo not drawn) showed a GI50 of 13.7 µM and a TGI of 35.9 µM.
`C=C(CN1CCN(c2ccc(Cl)cc2F)CC1)c1ccc(C(=O)Nc2ccccc2N)cc1` gave a GI50 of 2.26 µM and a TGI greater than 59.7 µM.
`CC(C)=CC(=O)C1c2cccc(O)c2C(=O)c2c(O)cc(C)cc21` (stereo not drawn) was tested, and the TGI was 3.17 µM.
Molecule `O=C(Nc1ccccc1)NS(=O)(=O)c1ccc(-n2nc3c(c2-c2cccs2)Cc2ccccc2-3)cc1` has a GI50 of 8.08 µM and a TGI greater than 100 µM.
`CCCCOC(=O)C1OC(O[C@H]2CCC3(C)C(CCC4(C)C3CC=C3C5CC(C)(C)CCC5(C(=O)O)CC[C@]34C)C2(C)C)C(OC2OC(CO)C(O)C(O)C2O)C(OC2OC(CO)C(O)C(O)C2O)C1O` (stereo partly drawn) showed a GI50 of 30.8 µM and a TGI of 93.5 µM.
In the case of `O=C1C=C(Cl)C(=O)C(c2ccc(Cl)cc2)=C1`, the TGI is reported as greater than 100 µM.
`Cc1ccc2c(=O)cc(-c3ccc(F)cc3)[nH]c2n1` was tested, and the TGI was greater than 100 µM.
`CCOc1ccc(NC(=O)C(=O)CC(=O)c2c[n+](=O)c3cc(C)c(C)cc3n2[O-])cc1` showed a TGI greater than 100 µM.
For `CN1C(=O)C(C)(C)C2(SC(C)(C)C2(C)C)N(C)C1=S` (stereo not drawn), the TGI was greater than 100 µM.
In the case of `Cn1cc(C2=C(c3cn(C)c4ncccc34)C(=O)NC2=O)c2ccccc21`, the GI50 is reported as 8.59 µM and the TGI is reported as greater than 25 µM.
With `O=C1C(Cl)=C(Nc2cccc(Cl)c2)C(=O)N1Cc1ccc(Cl)cc1Cl` the GI50 was 7.89 µM and the TGI was 39.2 µM.
For `O=C(/C=C/C12c3ccccc3C(c3ccccc31)C1C(=O)NC(=O)C12)c1ccncc1` (stereo not drawn), the GI50 was 1.85 µM and the TGI was 4.42 µM.
With `CC1(C)CCc2c(c3c(c4c(=O)c(O)c(-c5ccc(O)cc5)oc24)OC(C)(C)CC3)O1` the GI50 was greater than 100 µM and the TGI was greater than 100 µM.
`CC12CCC(O)CC1CCC1C2CCC2(C)C(C3=CC(=O)OC3)CCC12O` (stereo not drawn) gave a TGI greater than 43.3 µM.
`CN/N=C(/Cc1occc(=O)c1O)C(=O)Nc1ccccc1C` gave a TGI greater than 100 µM.
`Cc1coc2c1CC1(C)C(CCC(O)C1C)C2` (stereo not drawn) was tested, and the TGI was greater than 100 µM.
In the case of `COc1ccc2c(c1)/C(=C/c1c(C)nc3sc(C)nn13)C(=O)N2`, the GI50 is reported as 0.42 µM and the TGI is reported as greater than 54.6 µM.
In the case of `Cc1cc(I)cc(CN(C)CCCCN2CCCCC2)c1O`, the GI50 is reported as 13.6 µM and the TGI is reported as 31.3 µM.
With `O=C(Nc1ccc(Cl)c(Cl)c1)Nc1ccc(Cl)c(Cl)c1` the GI50 was 3.04 µM and 2.52 µM and the TGI was 11.6 µM and 6.99 µM.
`C#Cc1ccc(-n2c(/C=C/c3ccc(C(F)(F)F)cc3)nc3ncccc3c2=O)cc1` gave a GI50 of 1.79 µM and a TGI of 3.44 µM.
With `COc1cc(/C=N/NC(=O)c2ccc(C(F)(F)F)nc2Nc2ccc(Cl)cc2C)ccc1O` the GI50 was 2.23 µM and the TGI was 7.16 µM.
`COc1ccc(C(=O)Cn2c(C(=O)c3ccccc3)nc(-c3ccc(OC)cc3)c2-c2ccc(OC)cc2)cc1` gave a GI50 greater than 100 µM and a TGI greater than 100 µM.
For `O=C1c2ccccc2C2C1N2C(=O)C(F)(F)F` (stereo not drawn), the TGI was greater than 100 µM.
`N#CCCN(CCC#N)c1ccc(/C=C2\N=C(c3cc([N+](=O)[O-])ccc3Cl)OC2=O)cc1` gave a TGI of 28.2 µM.
For `CSc1nc2c(c(=O)[nH]1)N=C1c3ccccc3C(=O)C1C(c1ccccc1)N2` (stereo not drawn), the GI50 was 2.27 µM and the TGI was 37.5 µM.
`CCOC(=O)[C@]1(OC(C)=O)C[C@H](OC(C)=O)[C@@H](C(F)COP(=O)(OCc2ccccc2)OCc2ccccc2)O1` (stereo partly drawn) was tested, and the GI50 was 19.3 µM and > 100 µM and the TGI was 41.2 µM and > 100 µM.
In the case of `CC1=C(C(=O)Nc2ccc(Cl)c(Cl)c2)C(c2cccc(Oc3ccccc3)c2)NC(=S)N1` (stereo not drawn), the GI50 is reported as 5.71 µM and the TGI is reported as 12.6 µM.
For `c1ccc2cc(-c3cc(-c4cc(-c5ccc6ccccc6c5)on4)no3)ccc2c1`, the TGI was greater than 100 µM.

These molecules were tested on K-562 leukemia (assay: NCI anticancer screen, dose series, 48 h).
For `N#CC1C(C#N)C2(c3ccccc3)C(c3ccccc3)=NN(c3ccccc3)CC12` (stereo not drawn), the TGI was greater than 100 µM.
With `COc1cc(Cc2cnc(/N=C3\C(=O)N(CN4CCN(c5c(F)cc6c(=O)c(C(=O)O)cn(C7CC7)c6c5OC)CC4C)c4ccc(F)cc43)nc2N)cc(OC)c1OC` (stereo not drawn) the GI50 was 6.41 µM and the TGI was greater than 100 µM.
With `C=C(CN1CCN(c2ccc(Cl)cc2F)CC1)c1ccc(C(=O)Nc2ccccc2N)cc1` the GI50 was 1.12 µM and the TGI was greater than 100 µM.
Work on `CC(C)=CC(=O)C1c2cccc(O)c2C(=O)c2c(O)cc(C)cc21` (stereo not drawn) yielded a TGI greater than 100 µM.
Molecule `O=C(Nc1ccccc1)NS(=O)(=O)c1ccc(-n2nc3c(c2-c2cccs2)Cc2ccccc2-3)cc1` has a GI50 of 14 µM and a TGI of 76.2 µM.
`CCCCOC(=O)C1OC(O[C@H]2CCC3(C)C(CCC4(C)C3CC=C3C5CC(C)(C)CCC5(C(=O)O)CC[C@]34C)C2(C)C)C(OC2OC(CO)C(O)C(O)C2O)C(OC2OC(CO)C(O)C(O)C2O)C1O` (stereo partly drawn) showed a GI50 of 23.2 µM and a TGI greater than 100 µM.
Molecule `O=C1C=C(Cl)C(=O)C(c2ccc(Cl)cc2)=C1` has a TGI of 23.8 µM.
`Cc1ccc2c(=O)cc(-c3ccc(F)cc3)[nH]c2n1` showed a TGI of 83 µM.
`CCOc1ccc(NC(=O)C(=O)CC(=O)c2c[n+](=O)c3cc(C)c(C)cc3n2[O-])cc1` was tested, and the TGI was greater than 100 µM.
`CN1C(=O)C(C)(C)C2(SC(C)(C)C2(C)C)N(C)C1=S` (stereo not drawn) was tested, and the TGI was greater than 100 µM.
`Cn1cc(C2=C(c3cn(C)c4ncccc34)C(=O)NC2=O)c2ccccc21` gave a GI50 of 6.99 µM and a TGI greater than 25 µM.
`O=C1C(Cl)=C(Nc2cccc(Cl)c2)C(=O)N1Cc1ccc(Cl)cc1Cl` was tested, and the GI50 was 0.834 µM and the TGI was greater than 87.5 µM.
Work on `O=C(/C=C/C12c3ccccc3C(c3ccccc31)C1C(=O)NC(=O)C12)c1ccncc1` (stereo not drawn) yielded a GI50 of 1.88 µM and a TGI greater than 100 µM.
In the case of `CC1(C)CCc2c(c3c(c4c(=O)c(O)c(-c5ccc(O)cc5)oc24)OC(C)(C)CC3)O1`, the GI50 is reported as greater than 100 µM and the TGI is reported as greater than 100 µM.
`CC12CCC(O)CC1CCC1C2CCC2(C)C(C3=CC(=O)OC3)CCC12O` (stereo not drawn) showed a TGI greater than 90.5 µM.
Work on `CN/N=C(/Cc1occc(=O)c1O)C(=O)Nc1ccccc1C` yielded a TGI greater than 100 µM.
`Cc1coc2c1CC1(C)C(CCC(O)C1C)C2` (stereo not drawn) showed a TGI greater than 100 µM.
For `COc1ccc2c(c1)/C(=C/c1c(C)nc3sc(C)nn13)C(=O)N2`, the GI50 was 0.394 µM.
`Cc1cc(I)cc(CN(C)CCCCN2CCCCC2)c1O` gave a GI50 of 4.03 µM and a TGI of 17.1 µM.
With `O=C(Nc1ccc(Cl)c(Cl)c1)Nc1ccc(Cl)c(Cl)c1` the GI50 was 3.39 µM and 1.97 µM and the TGI was 19.8 µM and 9.9 µM.
`C#Cc1ccc(-n2c(/C=C/c3ccc(C(F)(F)F)cc3)nc3ncccc3c2=O)cc1` showed a GI50 of 2.96 µM and a TGI of 8.71 µM.
Molecule `COc1cc(/C=N/NC(=O)c2ccc(C(F)(F)F)nc2Nc2ccc(Cl)cc2C)ccc1O` has a GI50 of 1.31 µM and a TGI of 7.17 µM.
`COc1ccc(C(=O)Cn2c(C(=O)c3ccccc3)nc(-c3ccc(OC)cc3)c2-c2ccc(OC)cc2)cc1` showed a GI50 greater than 100 µM and a TGI greater than 100 µM.
With `O=C1c2ccccc2C2C1N2C(=O)C(F)(F)F` (stereo not drawn) the TGI was greater than 100 µM.
Work on `N#CCCN(CCC#N)c1ccc(/C=C2\N=C(c3cc([N+](=O)[O-])ccc3Cl)OC2=O)cc1` yielded a TGI of 40.7 µM.
For `CSc1nc2c(c(=O)[nH]1)N=C1c3ccccc3C(=O)C1C(c1ccccc1)N2` (stereo not drawn), the GI50 was 1.27 µM and the TGI was greater than 100 µM.
Work on `CCOC(=O)[C@]1(OC(C)=O)C[C@H](OC(C)=O)[C@@H](C(F)COP(=O)(OCc2ccccc2)OCc2ccccc2)O1` (stereo partly drawn) yielded a TGI greater than 100 µM.
Molecule `CC1=C(C(=O)Nc2ccc(Cl)c(Cl)c2)C(c2cccc(Oc3ccccc3)c2)NC(=S)N1` (stereo not drawn) has a GI50 of 12.4 µM and a TGI greater than 50 µM.
In the case of `c1ccc2cc(-c3cc(-c4cc(-c5ccc6ccccc6c5)on4)no3)ccc2c1`, the TGI is reported as greater than 100 µM.

What follows are molecules tested on ACHN renal (assay: NCI anticancer screen, dose series, 48 h).
With `N#CC1C(C#N)C2(c3ccccc3)C(c3ccccc3)=NN(c3ccccc3)CC12` (stereo not drawn) the TGI was greater than 100 µM.
Molecule `COc1cc(Cc2cnc(/N=C3\C(=O)N(CN4CCN(c5c(F)cc6c(=O)c(C(=O)O)cn(C7CC7)c6c5OC)CC4C)c4ccc(F)cc43)nc2N)cc(OC)c1OC` (stereo not drawn) has a GI50 of 1.72 µM and a TGI of 14.6 µM.
For `C=C(CN1CCN(c2ccc(Cl)cc2F)CC1)c1ccc(C(=O)Nc2ccccc2N)cc1`, the GI50 was 4.02 µM and the TGI was greater than 100 µM.
For `CC(C)=CC(=O)C1c2cccc(O)c2C(=O)c2c(O)cc(C)cc21` (stereo not drawn), the TGI was 4.77 µM.
In the case of `O=C(Nc1ccccc1)NS(=O)(=O)c1ccc(-n2nc3c(c2-c2cccs2)Cc2ccccc2-3)cc1`, the GI50 is reported as 17.6 µM and the TGI is reported as 38 µM.
`CCCCOC(=O)C1OC(O[C@H]2CCC3(C)C(CCC4(C)C3CC=C3C5CC(C)(C)CCC5(C(=O)O)CC[C@]34C)C2(C)C)C(OC2OC(CO)C(O)C(O)C2O)C(OC2OC(CO)C(O)C(O)C2O)C1O` (stereo partly drawn) gave a GI50 of 20.6 µM and a TGI of 48.5 µM.
Work on `O=C1C=C(Cl)C(=O)C(c2ccc(Cl)cc2)=C1` yielded a TGI of 30.3 µM.
`Cc1ccc2c(=O)cc(-c3ccc(F)cc3)[nH]c2n1` was tested, and the TGI was greater than 100 µM.
Work on `CCOc1ccc(NC(=O)C(=O)CC(=O)c2c[n+](=O)c3cc(C)c(C)cc3n2[O-])cc1` yielded a TGI greater than 100 µM.
In the case of `CN1C(=O)C(C)(C)C2(SC(C)(C)C2(C)C)N(C)C1=S` (stereo not drawn), the TGI is reported as greater than 100 µM.
`Cn1cc(C2=C(c3cn(C)c4ncccc34)C(=O)NC2=O)c2ccccc21` was tested, and the GI50 was 7.03 µM and the TGI was greater than 25 µM.
With `O=C1C(Cl)=C(Nc2cccc(Cl)c2)C(=O)N1Cc1ccc(Cl)cc1Cl` the GI50 was 0.409 µM and the TGI was 7.71 µM.
In the case of `O=C(/C=C/C12c3ccccc3C(c3ccccc31)C1C(=O)NC(=O)C12)c1ccncc1` (stereo not drawn), the GI50 is reported as 2.83 µM and the TGI is reported as 8.39 µM.
In the case of `CC1(C)CCc2c(c3c(c4c(=O)c(O)c(-c5ccc(O)cc5)oc24)OC(C)(C)CC3)O1`, the GI50 is reported as 48.9 µM and the TGI is reported as greater than 100 µM.
`CC12CCC(O)CC1CCC1C2CCC2(C)C(C3=CC(=O)OC3)CCC12O` (stereo not drawn) was tested, and the TGI was 10.3 µM.
